{"source": "patent US6395526B1", "about": "“DNA polymerase” (Takara Shuzo Co., Ltd., priority 1995, dated 2002)", "key": {"Pfu DNA polymerase": {"biological_target": "T1, Pfu DNA polymerase (Pyrococcus furiosus, UniProt P61875)", "T1 construct": "purchased Stratagene", "T1 sequence (P61875 1-775)": "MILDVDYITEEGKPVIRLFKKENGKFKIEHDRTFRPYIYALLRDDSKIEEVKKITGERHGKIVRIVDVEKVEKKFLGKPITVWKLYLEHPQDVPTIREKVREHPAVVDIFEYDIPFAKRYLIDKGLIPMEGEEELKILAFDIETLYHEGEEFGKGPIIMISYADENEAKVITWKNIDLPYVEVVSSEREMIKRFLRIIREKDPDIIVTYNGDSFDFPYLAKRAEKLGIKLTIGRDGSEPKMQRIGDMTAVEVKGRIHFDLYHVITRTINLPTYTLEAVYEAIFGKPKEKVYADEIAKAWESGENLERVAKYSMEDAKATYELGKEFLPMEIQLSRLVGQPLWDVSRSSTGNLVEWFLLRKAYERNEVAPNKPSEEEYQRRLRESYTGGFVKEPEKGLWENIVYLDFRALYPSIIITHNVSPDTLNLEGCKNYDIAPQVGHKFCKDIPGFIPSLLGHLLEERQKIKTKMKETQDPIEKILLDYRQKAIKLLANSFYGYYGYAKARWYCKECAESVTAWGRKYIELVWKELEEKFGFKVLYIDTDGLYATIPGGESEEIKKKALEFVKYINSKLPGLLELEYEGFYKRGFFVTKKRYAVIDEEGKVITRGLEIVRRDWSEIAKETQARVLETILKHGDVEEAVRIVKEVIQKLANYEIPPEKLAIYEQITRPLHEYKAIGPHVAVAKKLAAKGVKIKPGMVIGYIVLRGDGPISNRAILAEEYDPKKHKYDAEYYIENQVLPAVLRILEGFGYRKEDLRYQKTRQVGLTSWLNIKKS", "assay": "Inhibition by aphidicolin of Pfu DNA polymerase", "assay_type": "biochemical, Pyrococcus furiousus", "conditions": "1.0 mM aphidicolin", "protocol": "(§1) In order to compare the modes of inhibition by inhibitors, the modes of inhibition of the DNA polymerase of the present invention and an α-type DNA polymerase derived from Pyrococcus furiousus (Pfu DNA polymerase, manufactured by Stratagene), a known DNA polymerase, were compared using a specific inhibitor of α-type DNA polymerases, aphidicolin. The activity changes were examined, while the aphidicolin concentration was increased from 0 to 2.0 mM in the presence of 20 mM Tris-HCl, pH 7.7, 15 mM MgCl2, 2 mM 2-mercaptoethanol, 0.2 mg/ml activated DNA, and 40 μM each of dATP, dGTP, dCTP and dTTP."}, "[1]": {"biological_target": "T2, DNA polymerase of the present invention (Pyrococcus furiosus, UniProt P81409)", "T2 construct": "made in house; host or cells: Escherichia coli JM109 carrying pFU1001 (genomic XbaI-XbaI fragment in pTV118N)", "T2 sequence (P81409 1-1263)": "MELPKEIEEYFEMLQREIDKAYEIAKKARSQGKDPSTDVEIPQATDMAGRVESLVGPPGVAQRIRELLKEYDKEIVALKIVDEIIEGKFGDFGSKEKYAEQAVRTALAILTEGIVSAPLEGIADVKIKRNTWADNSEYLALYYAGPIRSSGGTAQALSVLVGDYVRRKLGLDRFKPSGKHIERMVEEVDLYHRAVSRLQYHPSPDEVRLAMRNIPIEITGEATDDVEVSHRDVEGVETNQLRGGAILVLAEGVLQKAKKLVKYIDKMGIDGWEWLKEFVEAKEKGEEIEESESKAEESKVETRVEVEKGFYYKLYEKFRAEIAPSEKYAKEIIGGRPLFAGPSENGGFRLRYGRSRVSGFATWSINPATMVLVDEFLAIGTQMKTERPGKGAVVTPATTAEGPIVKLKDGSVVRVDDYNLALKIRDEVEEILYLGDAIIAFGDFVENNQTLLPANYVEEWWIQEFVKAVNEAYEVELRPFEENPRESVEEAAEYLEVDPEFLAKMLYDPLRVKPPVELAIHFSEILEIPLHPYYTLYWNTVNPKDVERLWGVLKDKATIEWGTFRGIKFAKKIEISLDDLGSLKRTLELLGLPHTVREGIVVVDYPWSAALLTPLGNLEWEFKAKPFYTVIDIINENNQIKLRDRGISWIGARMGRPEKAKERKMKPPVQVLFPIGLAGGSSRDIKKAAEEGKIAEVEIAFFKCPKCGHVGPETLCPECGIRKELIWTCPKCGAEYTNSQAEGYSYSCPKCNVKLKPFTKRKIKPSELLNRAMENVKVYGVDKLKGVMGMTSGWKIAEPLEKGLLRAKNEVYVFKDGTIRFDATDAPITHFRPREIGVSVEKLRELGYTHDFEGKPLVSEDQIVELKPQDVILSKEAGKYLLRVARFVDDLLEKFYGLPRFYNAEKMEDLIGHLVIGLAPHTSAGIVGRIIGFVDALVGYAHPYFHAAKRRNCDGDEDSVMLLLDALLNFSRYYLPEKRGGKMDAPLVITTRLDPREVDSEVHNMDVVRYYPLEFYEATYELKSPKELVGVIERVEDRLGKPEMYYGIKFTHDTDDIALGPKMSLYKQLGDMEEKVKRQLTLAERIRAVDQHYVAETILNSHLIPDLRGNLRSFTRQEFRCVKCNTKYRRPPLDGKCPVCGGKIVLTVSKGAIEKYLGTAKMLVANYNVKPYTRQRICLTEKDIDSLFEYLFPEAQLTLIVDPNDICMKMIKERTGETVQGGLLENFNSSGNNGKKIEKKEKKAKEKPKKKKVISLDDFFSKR", "T2 sequence (P81412 1-613 partner)": "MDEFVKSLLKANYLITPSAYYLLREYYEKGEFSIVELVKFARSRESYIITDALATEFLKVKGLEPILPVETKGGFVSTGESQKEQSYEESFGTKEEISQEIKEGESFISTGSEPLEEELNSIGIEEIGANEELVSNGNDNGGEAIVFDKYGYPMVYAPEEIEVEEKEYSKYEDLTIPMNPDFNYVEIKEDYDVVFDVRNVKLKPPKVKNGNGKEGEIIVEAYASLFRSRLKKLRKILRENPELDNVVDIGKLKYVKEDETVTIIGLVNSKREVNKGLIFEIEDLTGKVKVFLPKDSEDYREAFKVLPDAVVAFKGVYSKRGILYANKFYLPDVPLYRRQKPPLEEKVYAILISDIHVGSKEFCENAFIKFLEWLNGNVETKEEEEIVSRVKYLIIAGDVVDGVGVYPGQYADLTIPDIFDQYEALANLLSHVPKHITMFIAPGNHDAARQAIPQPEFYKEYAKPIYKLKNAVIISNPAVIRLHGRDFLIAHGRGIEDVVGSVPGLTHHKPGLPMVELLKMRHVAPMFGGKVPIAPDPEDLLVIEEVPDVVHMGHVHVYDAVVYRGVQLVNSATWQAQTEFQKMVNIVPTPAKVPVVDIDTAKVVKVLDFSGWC", "assay": "Inhibition by aphidicolin of the DNA polymerase of the present invention", "assay_type": "biochemical", "conditions": "2.0 mM aphidicolin", "protocol": "as §1"}}, "data": [{"smiles": "C[C@@]1(CO)[C@H](O)CC[C@@]2(C)[C@H]1CC[C@H]1C[C@@H]3C[C@@]12CC[C@]3(O)CO", "note": "[aphidicolin]", "values": [{"measurement": "activity of the Pfu DNA polymerase relative to the original activity", "setting": "Pfu DNA polymerase", "value": 20, "unit": "%"}, {"measurement": "inhibition of the DNA polymerase of the present invention", "setting": "[1]", "value": "not inhibited at all"}]}]}
